What all share (format): cell-based
For one assay, the system named is MDA-MB-468 cells. In words: MTT proliferation assay, MDA-MB-468. Conditions: Homo sapiens, MDA-MB-468, 48 h, MDA-MB-468, MTT. The protocol:
(§1) Test results were recorded. A cell growth curve was drawn with the dosage of each compound as abscissa and the absorbance value as ordinate.
(Tetrazolium dyes change colour on reduction, which living cells bring about.)

Assay [1] relates to HepG2 cells. Description: MTT proliferation assay, HepG2. The protocol: (§2) Difference cell lines HepG2, SMMC-7721, HuH-7, MCF-7, MDA-MB-231, MDA-MB-468, PC9, PC9-AR, PC9-GR, Jurkat and Molt-13 were harvested during log phase; the number of the cells in an original cell suspension was counted; the original cell suspension was diluted to a density of 5×10^4 cells/mL; for a 96-well plate, 100 uL of the cell suspension was transferred to each well; DMSO is used as solvent for negative control; (2E)-3-(6-bromo-2-pyridyl)-2-cyano-N-[(1S)-1-phenylethyl]-2-acrylamide (WP1066CAS: 857064-38-1, with a formula
(§3) or gefitinib was used as a positive control; the naphthylurea compound ID1120B-1 and the phosphate ID1120B-P thereof were diluted with DMSO and added into the 96-well plate to achieve a final concentration of 0.1, 0.3, 1, 3, 10, 30, 100 and 300 μmol/L in each well; the 96-well plate was incubated for 48 h; 10 μL of MTT solvent (5 mg/mL) was added into each well; the 96-well plate was incubated at 37° C. for 4 h; a culture supernatant was discarded; 150 μL of DMSO was added into each well; the 96-well plate was shaken for 10 min on a plate shaker; an optical density (OD) of the resulting product was measured at a wavelength of 490 nm by an ELISA reader. Test results were recorded. A cell growth curve was drawn with the dosage of each compound as abscissa and the absorbance value as ordinate. The half maximum inhibition rates (IC50 value) of the cancer cells were shown in Table 1, FIGS. 1A-1J and FIGS. 2A-2J.

For another assay, the system named is PC9 cells. In words: MTT proliferation assay, PC9. Conditions: Homo sapiens, PC-9, 48 h. The protocol:
as §1

A further assay relates to HuH-7 cells. Description: MTT proliferation assay, HuH-7. Conditions: Homo sapiens; HuH-7, MTT, 48 h. The protocol: as §2, §3
The next assay deals with PC9GR cells. Description: MTT proliferation assay, PC9GR. The settings on record: 48 h. The protocol:
as §1

For another assay, the system named is MOLT-13 cells. Description: MTT proliferation assay, MOLT-13. The settings on record: MOLT-13, MTT. How it is done: as §2, §3
Another assay deals with MDA-MB-231 cells. In words: MTT proliferation assay, MDA-MB-231. The settings on record: Homo sapiens; MDA-MB-231, MTT, 48 h. How it is done: as §1
Assay [2] relates to HepG2 cells. Description: Cell cycle analysis by PI flow cytometry. Conditions: HepG2, 48 h; for induction of cells in the G2/M phase / percentage of cells in the G1/S phase: compared with negative control (DMSO); for length of the G2 phase, % of the cell cycle, after treatment: value reached after treatment (increase from DMSO control value). The protocol:
HepG2 cells were harvested during log phase, digested, centrifuged and prepared into a single cell suspension; the number of the cells in the single cell suspension was counted; the cells were seeded into a 12-well plate, with 2×10^5 cells per well; three wells were used as a parallel control design; 16 hours after seeding, the cells were treated with the compounds in a concentration gradient for 48 h; the cells were digested with trypsin and resuspended; the number of the cells in the cell suspension was counted and diluted to 5×10^5 cells/mL; after the digestion was completed, the cell suspension was centrifuged; the supernatant was discarded; the pellet was washed twice with PBS (each time the mixture was centrifuged 2000 rpm for 5 min); the supernatant was discarded; a fixative comprising 980 μL of 70% cold ethanol and 20 μL of 5% BSA (a small amount of BSA reduces cellular stress and damage) was added to each microcentrifuge tube, so that the cells were fixed overnight at 4° C.; the fixative is discarded; the cells were washed three times in PBS to remove residual fixative (each time the mixture was centrifuged at 1000 rpm for 3 min); a DNA quantification kit is used to measure the content of DNA according to the following instruction (Suo Laibao, Beijing): each sample was incubated in 100 μL of RNase A at 37° C. for 30 min; 500 μL of PI (propidium iodide) was added to each sample; each sample was incubated at room temperature for 30 min in the dark; the cell cycle was analyzed by a flow cytometry and a ModFit software; and Graphpad prism 6.0 was used to estimate the percentage of a cell population in the different phases of the cell cycle.

A further assay relates to SMMC-7721 cells. Description: MTT proliferation assay, SMMC-7721. Conditions: Homo sapiens; SMMC-7721, MTT, 48 h. The protocol: as §2, §3
A further assay concerns Jurkat cells. Description: MTT proliferation assay, Jurkat. The settings on record: 48 h. How it is done:
as §2, §3

The subject of a further assay is PC9AR cells. In words: MTT proliferation assay, PC9AR. Conditions: 48 h. How it is done: as §1
In a further assay the test system is MCF-7 cells. In words: MTT proliferation assay, MCF-7. Conditions: Homo sapiens, MCF7; MCF-7, MTT, 48 h; read-out: IC50. How it is done: as §1
In a further assay the test system is HepG2 liver cancer cells. In words: Annexin V-FITC/PI apoptosis flow cytometry. The settings on record: HepG2, 48 h; for induction of apoptosis: compared with the control group. How it is done:
The HepG2 cells were harvested during log phase, digested, centrifuged and prepared into a single cell suspension; the number of the cells in the cell suspension was counted; the cells were seeded into a 12-well plate, with 2×10^5 cells per well; three wells were used as a parallel control design; 16 hours after seeding, the cells were treated with the compounds in a concentration gradient for 48 h; the cells were digested with EDTA-free trypsin and resuspended; the number of the cells in the cell suspension was counted and diluted to 1×10^6 cells/mL; an annexin V apoptosis detection kit was used according to the following instruction (Suo Laibao, Beijing): the cells were washed twice with 1×PBS (each time the mixture was centrifuged at 6000 rpm for 0.5 min), washed once with 1×Binding buffer (and the mixture was centrifuged at 6000 rpm for 0.5 min); the supernatant was discarded; the cells were resuspended with 300 μL of 1×Binding buffer; 5 μL of Annexin V-FITC was added into each tube, and incubated in the dark for 10 min; 5 μL of PI was added into each tube and incubated in the dark for 5 min; and each tube was then inspected on a machine in the dark.
(Flow cytometry measures light scatter and fluorescence of single cells or particles in a stream.)

The test system of another assay is p62 (gene name: SQSTM). Description: qPCR of mRNA expression, SQSTM. Conditions: HepG2, 10 μM, 24 h, normalised to β-actin. The protocol:
(§4) HepG2 liver cancer cells were seeded in a 6-well plate, with 1×10^6 cells per well, and treated with the compound IY1214B-2 (in 0 and 10 μM concentrations) for 24 h; total RNA was extracted from the HepG2 liver cancer cells by a single-step TRIzol method; the concentration and purity of the total RNA was measured; the total RNA was used as a template; and complementary DNA (cDNA) was synthesized from the RNA template according to the instruction of a reverse transcription kit (Promega); sqRT-PCR and qPCR were used to quantify the expression of the genes CCNB1, CDK1 and SQSTM; and the gene ACTB was used as an internal reference gene for gene expression normalization.
(§5) A 20 μL reaction mix for qPCR contained:
(§6) Cycling conditions comprised:
(§7) After 40 cycles, the cycle threaded (CT) value of the β-actin gene was used as an initial value in comparison with the amount of the amplified product.

Assay [3] relates to Cyclin B1 (gene name: CCNB1). Description: qPCR of mRNA expression, CCNB1. The settings on record: HepG2, 10 μM, 24 h, normalised to β-actin. How it is done: as §4, §5, §6, §7
(Real-time PCR tracks product formation cycle by cycle.)

For a further assay, the system named is CDC2 (gene name: CDK1). In words: qPCR of mRNA expression, CDK1. Conditions: HepG2, 10 μM, 24 h, normalised to β-actin. The protocol:
as §4, §5, §6, §7

[4] abbreviates: concentration of 8 μL (so in the source).

Each structure is given as a SMILES string.

From patent publication US20230271928A1, “NAPHTHYLUREA COMPOUND, METHODS OF PREPARATION AND USE THEREOF” (Henan Radiomedical Science and Technology Co., Ltd., priority 2021, published 2023) come the findings set out here.

The term IC50 denotes the concentration that gives 50% inhibition. In the case of `O=C(NCc1ccccc1)Nc1ccc(OCc2ccc(OCCN3CCCCC3)cc2)c2ccccc12` [ID1120B-1, 1-benzyl-3-(4-((4-(2-(piperidin-1-yl)ethoxy)benzyl)oxy)naphthalen-1-yl)urea], the IC50 was determined as 4.92 µM in the assay on MDA-MB-468 cells; 1.68 µM in the assay with HepG2 cells [1] (48 h); 14.1 µM in the assay on PC9 cells; 3.15 µM with HuH-7 cells; 32.3 µM in the assay on PC9GR cells; 10.8 µM in the assay on MOLT-13 cells (Homo sapiens, MOLT-13, 48 h). Moreover, the half-inhibitory concentration (IC50) was 17.5 µM with MDA-MB-231 cells, 3.51 µM in the assay on SMMC-7721 cells, 3.23 µM in the assay with Jurkat cells (Homo sapiens) and 8 µM in the assay with PC9AR cells. Moreover, in the assay on HepG2 cells [2], the “induction of cells in the G2/M phase” value was “dramatically induce the liver cancer cells in the G2/M phase in a dose-dependent manner”. Further, the “percentage of cells in the G1/S phase” value with HepG2 cells [2] was “significantly decrease the percentage of the liver cancer cells in the G1/S phase”.

In the case of `O=C(NCc1ccccc1)Nc1ccc(OCc2ccc(OCCN3CCCCC3)cc2)c2ccccc12` [ID1120B-P, 1-benzyl-3-(4-((4-(2-(piperidin-1-yl)ethoxy)benzyl)oxy)naphthalen-1-yl)urea phosphate], the concentration for half-maximal inhibition (IC50) in the assay with HepG2 cells [1] (Homo sapiens, HepG2, 48 h) amounted to 2.37 µM; in the assay on MOLT-13 cells (48 h, phosphate), 9.79 µM; with Jurkat cells (phosphate), 4.74 µM.

As for `COc1ccc(NC(=O)Nc2ccc(OCc3ccc(OCCN4CCCCC4)cc3)c3ccccc23)cc1` [IY1214A-1], the IC50 in the assay on MCF-7 cells is 3.54 µM; in the assay with HepG2 cells [1] (Homo sapiens, HepG2, 48 h), 1.85 µM; with HuH-7 cells it was 2.76 µM; with MDA-MB-231 cells, 2.11 µM; in the assay on SMMC-7721 cells it was 3.57 µM. Besides, the “induction of cells in the G2/M phase” value with HepG2 cells [2] is reported as “dramatically induce the liver cancer cells in the G2/M phase in a dose-dependent manner”. For the same molecule, the “percentage of cells in the G1/S phase” value with HepG2 cells [2] is “significantly decrease the percentage of the liver cancer cells in the G1/S phase”. Also, the “length of the G2 phase, % of the cell cycle, after treatment” value in the assay with HepG2 cells [2] came out at 34.54%. Further, the figures for the apoptosis rate in the assay with HepG2 liver cancer cells (4 μM) and in the assay with HepG2 liver cancer cells (8 μM) were 57.7% and 63%, respectively. In addition, the “apoptosis rate, times higher than that of untreated wells” value with HepG2 liver cancer cells (4 μM and 8 μM) was “more than 2 times”. Moreover, the induction of apoptosis entry in the assay on HepG2 liver cancer cells was “induce apoptosis in the HepG2 liver cancer cells in a dose-dependent manner”.

`O=C(Nc1ccc(OC(F)(F)F)cc1)Nc1ccc(OCc2ccc(OCCN3CCCCC3)cc2)c2ccccc12` [IY1214B-2]: the half-inhibitory concentration (IC50) in the assay with MDA-MB-468 cells is 3.85 µM. Further, the half-inhibitory concentration (IC50) in the assay with HepG2 cells [1] (Homo sapiens, HepG2, 48 h) was 3.85 µM. In addition, the “SQSTM (p62) expression level up-regulated by” value in the assay on p62 (gene name: SQSTM) was determined as 2.5 times. In addition, the “CCNB1 mRNA level down-regulated by” value in assay [3] is reported as 20-25%. In the assay on HuH-7 cells, this molecule yielded an IC50 of 23.1 µM. In addition, in the assay with HepG2 cells [2], the “induction of cells in the G2/M phase” value is “dramatically induce the liver cancer cells in the G2/M phase in a dose-dependent manner”; the “percentage of cells in the G1/S phase” value is “significantly decrease the percentage of the liver cancer cells in the G1/S phase”; the “length of the G2 phase, % of the cell cycle, after treatment” value is reported as 21.71%. Moreover, in the assay with HepG2 liver cancer cells, the induction of apoptosis entry is “induce apoptosis in the HepG2 liver cancer cells in a dose-dependent manner”. In the assay on HepG2 liver cancer cells (setting [4]), the apoptosis rate stood at 47.1% and the “apoptosis rate, times higher than that of untreated wells” value was determined as 3.3 times. In the assay on SMMC-7721 cells, this molecule yielded an IC50 of 31.4 µM. For the same molecule, the “CDK1 mRNA level down-regulated by” value in the assay with CDC2 (gene name: CDK1) is on record as 20-25%.

In the case of `C[C@H](NC(=O)/C(C#N)=C/c1cccc(Br)n1)c1ccccc1` [WP1066, (2E)-3-(6-bromo-2-pyridyl)-2-cyano-N-[(1S)-1-phenylethyl]-2-acrylamide, reference compound], the half-inhibitory concentration (IC50) in the assay with MCF-7 cells came to 18 µM; in the assay with MDA-MB-468 cells it was 13.2 µM; with HepG2 cells [1] (Homo sapiens, HepG2, 48 h) it was 9.21 µM; with PC9 cells it was 9.26 µM; with HuH-7 cells, 8.11 µM; with PC9GR cells, 14.7 µM. Also, the IC50 in the assay with MOLT-13 cells (Homo sapiens, MOLT-13, 48 h) is 17.1 µM; with MDA-MB-231 cells, 10.2 µM; in the assay on SMMC-7721 cells it was 11.9 µM; in the assay on Jurkat cells (Homo sapiens), 10 µM; with PC9AR cells it was 8.49 µM.
